Values of other authors in patent US10526439B2, “High dielectric breakdown strength resins” (priority 2017, dated 2020).

Conditions: monomer property, Table IA; species and route not given

SMILES	Toxicity LD50 [mg/kg]
C=Cc1ccccc1 [STYRENE, styrene]	>2000
C=Cc1ccc(C(C)(C)C)cc1 [Monomer 1, 4-tert butyl styrene]	>2000
